Assay results published in US8410151B2, “Aminomethyl benzene derivatives” (Actelion Pharmaceuticals Ltd, priority 2009, dated 2013).

Legend:
[1] = target: recombinant human S1P1 receptor (Homo sapiens, UniProt P21453); assay: GTPγS assay to determine EC50 values; assay type: biochemical; conditions: 35S-GTPγS binding, membrane preparations of CHO cells expressing recombinant human S1P1 receptor
Procedure: GTPγS binding assays are performed in 96 well microtiter plates (Nunc, 442587) in a final volume of 200 μl, using membrane preparations of CHO cells expressing recombinant human S1P1 receptor. Assay conditions are 20 mM Hepes (Fluka, 54461), 100 mM NaCl (Fluka, 71378), 5 mM MgCl2 (Fluka, 63064), 0.1% BSA (Calbiochem, 126609), 1 μM GDP (Sigma, G-7127), 2.5% DMSO (Fluka, 41644), 50 pM ^355-GTPγS (Amersham Biosciences, SJ1320). The pH is 7.4. Test compounds are dissolved and diluted in 100% DMSO and pre-incubated at room temperature for 30 min in 150 μl of the above assay buffer, in the absence of ^355-GTPγS. After addition of 50 μl of ^355-GTPγS, the assay is incubated for 1 h at rt. The assay is terminated by transfer of the reaction mixture to a Multiscreen plate (Millipore, MAHFC1H60) using a cell harvester from Packard Biosciences, and the plates are washed with ice-cold 10 mM Na2HPO4/NaH2PO4 (70%/30%), dried, sealed at the bottom and, after addition of 25 μl MicroScint20 (Packard Biosciences, order #6013621), sealed on the top. Membrane-bound ^35S-GTPγS is measured with a TopCount from Packard Biosciences.
EC50 is the concentration of agonist inducing 50% of the maximal specific ^35S-GTPγS binding. Specific binding is determined by subtracting non-specific binding from maximal binding. Maximal binding is the amount of cpm bound to the Multiscreen plate in the presence of 10 μM of S1P. Non-specific binding is the amount of binding in the absence of an agonist in the assay.

[2] = test system: circulating lymphocytes; assay: Assessment of in vivo efficacy: circulating lymphocytes after oral administration; set-up: species or system normotensive male Wistar rats; conditions: 3 h after oral administration of 10 mg/kg, male Wistar rats, compared to vehicle-treated group
Procedure: The efficacy of the compounds of formula (I) is assessed by measuring the circulating lymphocytes after oral administration of 3 to 30 mg/kg of a compound of formula (I) to normotensive male Wistar rats. The animals are housed in climate-controlled conditions with a 12 h-light/dark cycle, and have free access to normal rat chow and drinking water.
Blood is collected before and 3, 6 and 24 h after drug administration. Full blood is subjected to hematology using Advia Hematology system (Bayer Diagnostics, Zurich, Switzerland).
All data are presented as mean±SEM. Statistical analyses are performed by analysis of variance (ANOVA) using Statistica (StatSoft) and the Student-Newman-Keuls procedure for multiple comparisons. The null hypothesis is rejected when p<0.05.

recombinant human S1P1 receptor, sequence (P21453 whole entry): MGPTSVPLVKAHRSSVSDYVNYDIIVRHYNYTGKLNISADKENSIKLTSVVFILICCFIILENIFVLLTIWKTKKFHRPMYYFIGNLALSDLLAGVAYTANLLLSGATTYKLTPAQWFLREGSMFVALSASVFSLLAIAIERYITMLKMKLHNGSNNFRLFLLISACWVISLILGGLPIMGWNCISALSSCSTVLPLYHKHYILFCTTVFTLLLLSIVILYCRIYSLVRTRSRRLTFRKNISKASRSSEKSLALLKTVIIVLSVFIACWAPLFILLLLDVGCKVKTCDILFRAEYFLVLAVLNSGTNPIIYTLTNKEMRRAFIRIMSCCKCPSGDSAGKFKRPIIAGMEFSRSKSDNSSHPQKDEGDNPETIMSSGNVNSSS

| SMILES | EC50 [1] [nM] | Lymphocyte counts [2] [%] |
| --- | --- | --- |
| CCc1cc(-c2noc(-c3cc(C)cc(CN4CCCC4)c3)n2)cc(C)c1OC[C@@H](O)CNC(=O)CO [Example 22, N—((S)-3-{2-ethyl-6-methyl-4-[5-(3-methyl-5-pyrrolidin-1-ylmethyl-phenyl)-[1,2,4]oxadiazol-3-yl]-phenoxy}-2-hydroxy-propyl)-2-hydroxy-acetamide] | 7 | −61.0 |
| CCCCN(C)Cc1cc(C)cc(-c2nc(-c3cc(C)c(OC[C@@H](O)CNC(=O)CO)c(CC)c3)no2)c1 [Example 18, N—{(S)-3-[4-(5-{3-[(butyl-methyl-amino)-methyl]-5-methyl-phenyl}-[1,2,4]oxadiazol-3-yl)-2-ethyl-6-methyl-phenoxy]-2-hydroxy-propyl}-2-hydroxy-acetamide] | 3.3 | −63.0 |
| CCc1cc(CN(C)CC(C)C)cc(-c2nc(-c3cc(C)c(OC[C@@H](O)CNC(=O)CO)c(CC)c3)no2)c1 [Example 53, N—{(S)-3-[2-ethyl-4-(5-{3-ethyl-5-[(isobutyl-methyl-amino)-methyl]-phenyl}-[1,2,4]oxadiazol-3-yl)-6-methyl-phenoxy]-2-hydroxy-propyl}-2-hydroxy-acetamide] | – | −61.0 |
| CCc1cc(-c2noc(-c3cc(C)cc(CN(C)CC)c3)n2)cc(C)c1OC[C@@H](O)CNC(=O)CO [Example 16, N—{(S)-3-[2-ethyl-4-(5-{3-[(ethyl-methyl-amino)-methyl]-5-methyl-phenyl}-[1,2,4]oxadiazol-3-yl)-6-methyl-phenoxy]-2-hydroxy-propyl}-2-hydroxy-acetamide] | 2.7 | −62.1 |
